We go through 18 compounds from US9765113B2, “Methods and agents for the treatment of cancer” (INTERK PEPTIDE THERAPEUTICS LIMITED, priority 2003, dated 2017).

Like-named read-outs stand apart in the source and are kept apart here. Ends that are not written are not given here.

The subject of data set [1] is HUVEC cells. Kind of data set: Cell proliferation assay using MTT. It is filed as cell-based, human. The procedure: The ability of the 10(4) peptide […] (SEQ ID No: 7) linked to the signal peptide […] (SEQ ID No: 1) to inhibit the proliferation of the above cell lines was assessed using the cell proliferation assay described in Example 2.1.
Data set [2] has as its system HT29 colon cancer cells. Description: Annexin-V-FITC FACScan apoptosis analysis. It is filed as cell-based. The conditions noted are these: peptide 16 hours, staurosporine 1 μM 1-2 hours. The method, then: (§1) The killing of HT29 cancer cells compared to normal keratinocytes, human umbilical vein epithelial cells (HUVECs) and skin fibroblasts by the peptide […] (IK2) (SEQ ID No: 16) was assessed. Briefly, cells were recovered by trypsinisation and resuspended into fresh culture medium. Cell viability was determined (0.4% Trypan Blue in phosphate buffered saline (PBS) 1:1 v/v), and 0.75×10^6 viable cells were passaged into a 25 cm^2 tissue culture flask then cultured for 24 hours at 37° C., 5% CO2 in air. Immediately prior to the addition of the IK2 peptide, culture media was removed by decanting and replaced with fresh media (2.0 mls minus volume addition of IK2 peptide). The treated cells were then cultured for 16 hours.
(§2) Cells were prepared as above for the positive control. Staurosporine (Sigma #S5921) was added to the culture media to a final concentration of 1 μM and the cells exposed to the apoptosis inducer for a maximum of 1-2 hours. For a negative control, vehicle alone (normal saline) was added to cell culture media.
Apoptotic cells were detected by FACScan analysis utilising Annexin-V-FITC (Sigma kit #A2214) to indicate apoptosis. For the analysis, cells were recovered by trypsinisation as above, and resuspended (˜1×10^6 cells/ml) into 1× binding buffer (Sigma #B9796). […] Cells were incubated at room temperature for 10 minutes in the dark and fluorescence determined by flow cytometer. […]

In data set [3] the test system is HUVEC. Description: Annexin-V-FITC FACScan apoptosis analysis. The conditions noted are these: FIG. 23. The method, then:
as §1, §2
(§3) Apoptotic cells were detected by FACScan analysis utilising Annexin-V-FITC (Sigma kit #A2214) to indicate apoptosis. For the analysis, cells were recovered by trypsinisation as above, and resuspended (˜1×10^6 cells/ml) into 1× binding buffer (Sigma #B9796). 500 μl of cell suspension was then aliquoted into a 10 ml plastic test tube, prior to the addition of 5 μl of Annexin-V FITC and 10 μl of propidium iodide (Sigma #P2667). Cells were incubated at room temperature for 10 minutes in the dark and fluorescence determined by flow cytometer. Living cells are not stained by either Annexin-V-FITC or propidium iodide, while early apoptosis is indicated by staining with Annexin-V-FITC only and necrotic cells are stained by both Annexin-V-FITC and propidium iodide.

Data set [4] relates to skin fibroblasts (SkinF). Description: Annexin-V-FITC FACScan apoptosis analysis. The following applies: skin fibroblast (SkinF), FIG. 23. The method, then:
as §1, §2, §3

The subject of data set [5] is normal keratinocytes (KC). Kind of data set: Annexin-V-FITC FACScan apoptosis analysis. The conditions noted are these: FIG. 23. The method, then:
as §1, §2, §3

Data set [6] has as its system HT29 colon cancer xenografts. Kind of data set: In vivo tumour growth of HT29 colon cancer xenografts. Also on record: species or system Balb/c athymic mice. The procedure: Balb/c female athymic mice (8 weeks of age obtained from the Animal Resource Centre, Perth, Western Australia) were maintained under pathogen-free conditions and fed standard mouse chow and water ad lib. The mice were divided into groups of ten each. Mice in different groups were marked by ear notching. Briefly, the mice were anaesthetised using isoflurothane by inhalation and their ears marked using a surgical punch. After a recovery period of 48 hours, the mice in each group were injected with 1×10^6 HT29 colon cancer cells in standard DMEM culture medium subcutaneously dorsally behind the right shoulder using a 21-gauge needle. Animal weights and tumour sizes (breadth and length measured with callipers) were recorded weekly. Mice were sacrificed by CO2 asphyxiation and tumour mass excised for measurement.
Mice were injected twice weekly for four weeks commencing 10 days after tumour cell inoculation with DMEM, signal peptide ([…]) (designated “carrier”) (SEQ ID No: 1) or the […] (IK-1) (SEQ ID No: 19) peptide agent, and tumour growth was compared to an untreated control group.
Colon cancer inhibition by peptide […] (IK2P) (SEQ ID No: 18) administered intravenously to colon tumour bearing Balb/c athymic mice as per the protocol described above, is shown in FIG. 20. Colon tumour xenografts were achieved by injection of 1×10^6 HT29 colon cancer cells as above. […]

In data set [7] the test system is cancer cell lines. Kind of data set: Proliferation of cancer cell lines with signal peptide alone. The data set is classed as cell-based. The following applies: any cancer cell lines tested, data not shown.
Data set [8] deals with HT29 colon cancer cells.
Description: (§7) An assay using the substrate methylthiazoletetrazolium (MTT) was utilised to determine the inhibitory affect of peptide agents on cancer cell proliferation. MTT substrate (CAT No. M-2128, Sigma) is cleaved in growing cells to yield a water insoluble salt. After solubilisation of the salt, a coloured product is produced that allows quantitation of the proliferative activity of the cultured cells. To prepare the MTT solution for use in the assay, 100 mg of MTT is mixed with 20 ml of PBS at pH 7.4. The resulting solution is filter sterilised (0.2 μM syringe filter) and stored at 4° C. protected from light until use.
(§8) Cells from the colon cancer cell line HT29 were seeded into wells of a 96-well microlitre plate in Dulbecco's Modified Eagle's Medium (DMEM) supplemented with 10% foetal bovine serum, glutamine, Hepes, and antibiotics at a concentration of 2,000 cells/100 μl and cultured for 24 hours in 5% CO2 in air at 37° C. After the 24 hour incubation period the test agent (solubilised in complete DMEM) is added to test wells to a final media volume of 200 μl and the microtitre plate is incubated for a further 48 to 72 hour period.
(§9) A 20 μl volume of the MTT solution prepared as above is then added to the test wells and the microtitre plate incubated for further 3 hours in 5% CO2 in air at 37° C. The plate is subsequently centrifuged for 5 minutes at 2,000 rpm in a microplate carrier. The supernatant is then removed from the wells using a multichannel pipette leaving MTT crystals in the wells.
(§10) To the wells is then added 150 μl of 6:1 v/v DMSO/glycine solution (0.1 M glycine and 0.1 M NaCl adjusted to pH 10.5 using NaOH) and the MTT crystals are dissolved by gently vortexing the microtitre plate. Absorbance is read at 550 nm using a microtitre plate reader.
For data set [9], the system named is HT29 colon cancer cells. Description: Cell proliferation assay using MTT. The following applies: for inhibition of proliferation (in words): relative to untreated control cells.
Description: as §7, §8, §9, §10
The target in data set [10] is T1, cytoplasmic domain of β6 (Homo sapiens, UniProt P18564).
T1 sequence (P18564 737-788): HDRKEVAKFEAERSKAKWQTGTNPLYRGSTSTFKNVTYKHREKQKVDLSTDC
Description: ELISA binding of MAP kinase fragments to the cytoplasmic domain of β6. The conditions noted are these: FIG. 1 and FIG. 4. On the technique in general: An ELISA detects its analyte on a solid surface through an enzyme-linked reagent.
Description: Primary antibody detection for the MAP kinase is then added to the test wells and the ELISA plate is allowed to stand for a further 30 minutes at room temperature before the antibody solution is decanted from the plate and the wells again washed with the wash solution. Optimal dilutions of primary detection antibody are pre-determined for each target MAP kinase. […] The wells are read at 405 nm using a microplate reader (Bio-Rad). […]
The binding of various MAP kinases to the cytoplasmic domain of β6 was tested using the assay described in Example 1.1. […] (SEQ ID No: 26), and the binding interaction detected using the anti-β6 antibody R6G9. […]

Data set [11] concerns ERK2. Description: ELISA assay for detection of MAP kinase binding to biotinylated peptide. The following applies: result in words. The procedure:
(§4) An assay was developed for detecting the ability of MAP kinases to bind with a peptide agent in solution.
(§5) Briefly, the MAP kinase is added to an eppendorf tube containing a biotinylated test peptide in phosphate buffered saline (PBS) at pH 7.4. The mixture is allowed to stand at room temperature for 10 minutes with occasional mixing by gentle inversion of the tube. The MAP kinase/test peptide mixture is then transferred to a pre-washed (PBS×3×100 μl) 96-well streptavidin coated ELISA microtitre plate and allowed to stand for 60 minutes at room temperature. At the end of the 60 minute period, the MAP kinase/test peptide mixture is tipped from the ELISA plate and the wells washed 3 times with wash solution (PBS+0.05% Tween−20).
(§6) Primary antibody detection for the MAP kinase is then added to the test wells and the ELISA plate is allowed to stand for a further 30 minutes at room temperature before the antibody solution is decanted from the plate and the wells again washed with the wash solution. Optimal dilutions of primary detection antibody are pre-determined for each target MAP kinase. Alkaline-phosphatase or other enzyme conjugated anti-primary species antibody at a dilution of 1:2000 v/v is subsequently added to the wells and the microtitre plate is allowed to stand for another 30 minutes at room temperature, before the washing step is repeated and phosphatase detection reagent is added to the wells and the colour reaction allowed to develop. The wells are read at 405 nm using a microplate reader (Bio-Rad). Controls comprise non-biotinylated peptide and biotinylated peptide alone

The target of data set [12] is T2, ERK1 (Homo sapiens, UniProt P27361).
T2 construct: GST (N, cleaved yes); made in house
The data set is described as above. The conditions noted are these: FIG. 2. The method, then: as §4, §5, §6

T2 sequence (P27361 whole entry, species assumed): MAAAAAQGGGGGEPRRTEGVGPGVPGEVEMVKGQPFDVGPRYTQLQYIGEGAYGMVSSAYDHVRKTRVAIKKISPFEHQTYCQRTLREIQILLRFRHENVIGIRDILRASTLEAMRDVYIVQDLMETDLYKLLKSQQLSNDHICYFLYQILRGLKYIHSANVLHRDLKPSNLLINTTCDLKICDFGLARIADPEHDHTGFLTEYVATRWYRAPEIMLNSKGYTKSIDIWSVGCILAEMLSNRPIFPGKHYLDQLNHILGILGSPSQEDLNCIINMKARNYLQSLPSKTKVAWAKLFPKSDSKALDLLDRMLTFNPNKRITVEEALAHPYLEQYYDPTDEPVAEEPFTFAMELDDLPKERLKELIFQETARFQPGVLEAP

For the compound `O=c1[nH]cc(F)c(=O)[nH]1` [5-FU, 5-Fluorouracil, reference compound], in [1], the “impact on proliferation of normal HUVEC cells” value (“impact on proliferation” below) is “toxicity”.

Regarding `CN[C@@H]1C[C@H]2O[C@@](C)([C@@H]1OC)n1c3ccccc3c3c4c(c5c6ccccc6n2c5c31)C(=O)NC4` [staurosporin, Staurosporine, reference compound], the induction of apoptosis entry is listed as “apoptosis was induced” in data set [2], “induced apoptosis” in data set [3], “induced apoptosis” in data set [4] and “induced apoptosis” in data set [5].

In the case of “AAVALLPAVLLALLA [nfkb, reference compound]”, in data set [6] (intra-tumoural injections, day 28 relative to time 0 / control group, FIG. 18B), the “mouse weight at day 28” value is on record as “marked weight loss”.

Take “AAVALLPAVLLALLAP [nfkbp, K-FGF signal peptide]”: the “effect of signal peptide alone on proliferation” value in [7] is on record as “essentially no effect”.

Take AAVALLPAVLLALLAPRSKAKNPLYR [nfkb10(4)p]: the “impact on proliferation” value in data set [1] was “relatively minimal”. For the same compound, the “inhibition of proliferative response compared to 5-FU” value in [8] is listed as “more effective”.

Take “AAVALLPAVLLALLARSKAKNPLYR (also: acetate salt) [nfkb10(4)acetate]”: the “inhibition of proliferation at the highest concentration” value in data set [9] (HT29, MTT, highest concentration of peptide employed) is on record as “total inhibition”.

Consider AAVALLPAVLLALLARSKAKNPLYR [IK2], for which the induction of apoptosis result in data set [3], in data set [4] and in data set [5] was “essentially no apoptosis” throughout.

On to AAVALLPAVLLALLARSKAKWQTGTNPLYR [IK-1], for which the “mouse weight at day 28” value in data set [6] (mouse, in vivo) is “Substantially no difference”. For the same compound, in data set [1] (HUVEC, MTT), the “impact on proliferation” value is “essentially no impact”.

In the case of AAVALLPAVLLALLARSRARNPLYR [nf-b5-10-4], the “degree of inhibition compared with nf-b5-frag 5” value in [9] (HT29, MTT, FIG. 14G) is “greater degree of inhibition”. In addition, the “inhibition of proliferation (in words)” value in [9] (HT29, MTT) is given as “inhibited proliferation”.

For the compound “Alkyl(4): stearic acid coupled to the RSKAKNPLYR peptide (also: stearic acid coupled (site not given here))”, in [9] (HT29, MTT), the “inhibition of proliferation (in words)” value is reported as “effective”.

Regarding “GRKKRRQRRRPQCG [TAT-G, reference compound]”, the “toxicity of carrier peptide alone” value in [9] (HT29, FIG. 8 and FIG. 9) was “some toxicity”.

With “HRDLKPSNLAVNEDCELKILDFGLAR [p38 MAP kinase fragment]”, the “binding to the cytoplasmic domain of β6” value in data set [10] is recorded as “bound”.

KEKLKNPLFK [β2 (10(4)]: the “binding to ERK2” value in data set [11] is listed as “bound by ERK2”.

Take RARAKNPLYK: the “binding to ERK2” value in data set [11] is “still bound by ERK2”.

As to RSKAKNPLYR [10(4)], the “binding to ERK2” value is reported as “binds to ERK2” in data set [11] and “still bound by ERK2” in [11] (listed as RSKAKNPLYR).

Turning to RSKAKWQTGTNPLYR, in data set [12], the “binding to ERK1” value is “bind”. Moreover, the “binding to ERK2” value in [11] is “bind”.

As for RSRARNPLYR, the “binding to ERK2” value in [11] is reported as “still bound by ERK2”.

With “VTVLALGALAGVGVGRSKAKWQTGTNPLYR [Frag 5B3]”, in data set [9] (HT29, MTT, higher concentration of the peptides used, FIG. 5), the “proliferation of the cells relative to control cells” value is recorded as “about 37%”.
